Reference: patent US10131652B2, “Pyrimidinyloxy benzene derivatives as herbicides” (E. I. DU PONT DE NEMOURS AND COMPANY, priority 2014, dated 2018)
Like-named read-outs stand apart in the source and are kept apart here.

Columns and labels:
Format in all cases: in vivo
[1] = test system: barnyardgrass (Echinochloa crus-galli); assay: Test B pre-/postemergence plant response; conditions: Echinochloa crus-galli, 240 h, read-out: Plant response rating, Barnyardgrass; for pest or weed control at 125 g/ha: 125 g ai/ha; for pest or weed control at 500 g/ha: 500 g ai/ha
Summary of the method: (§1)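 Seeds in loam–sand blend given preemergence soil spray; separately, plants at one- to two-leaf stage (2–10 cm) sprayed postemergence, compounds in non-phytotoxic solvent with surfactant. Injury rated visually versus untreated controls after ~10 days in greenhouse, 0 (no effect) to 100 (complete control).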

corn (Zea mays) = assay: Test B pre-/postemergence plant response; conditions: Zea mays, 240 h; for Corn plant response rating (crop injury, 0 = no effect, 100 = complete kill) at 125 g/ha: 125 g ai/ha; for Corn plant response rating (crop injury, 0 = no effect, 100 = complete kill) at 500 g/ha: 500 g ai/ha
Summary of the method: as §1

[2] = test system: giant foxtail (Setaria faberii); assay: Test B pre-/postemergence plant response; conditions: Setaria faberi, 240 h, read-out: Plant response rating, Foxtail, Giant; for pest or weed control at 125 g/ha: 125 g ai/ha; for pest or weed control at 500 g/ha: 500 g ai/ha
Summary of the method: as §1

[3] = test system: pigweed (Amaranthus retroflexus); assay: Test B pre-/postemergence plant response; conditions: Amaranthus retroflexus, 240 h, read-out: Plant response rating, Pigweed; for pest or weed control at 125 g/ha: 125 g ai/ha; for pest or weed control at 500 g/ha: 500 g ai/ha
Summary of the method: as §1

[4] = test system: wheat (Triticum aestivum); assay: Test B pre-/postemergence plant response; conditions: Triticum aestivum, 240 h, read-out: Plant response rating, Wheat; for plant injury at 125 g/ha: 125 g ai/ha; for plant injury at 500 g/ha: 500 g ai/ha
Summary of the method: as §1

[5] = test system: barnyardgrass (Echinochloa crus-galli); assay: Test C flooded paddy test plant response; conditions: Echinochloa crus-galli; Flood, 250 g ai/ha; scale of 0 to 100 where 0 is no effect and 100 is complete control; 13 to 15 days; read-out: Barnyardgrass plant response rating
Summary of the method: (§2)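 Visual injury ratings (0, no effect; 100, complete control) were assigned after 13 to 15 days in a greenhouse, comparing treated plants with controls. Compounds had been added straight into paddy water over 2-leaf-stage plants flooded to 3 cm.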

[6] = test system: ducksalad (Heteranthera limosa); assay: Test C flooded paddy test plant response; conditions: Heteranthera limosa; Flood, 250 g ai/ha; scale of 0 to 100 where 0 is no effect and 100 is complete control; 13 to 15 days; read-out: Ducksalad plant response rating
Summary of the method: as §2

rice (Oryza sativa) = assay: Test C flooded paddy test plant response; conditions: Oryza sativa; Flood, 250 g ai/ha; scale of 0 to 100 where 0 is no effect and 100 is complete control; 13 to 15 days; read-out: Rice plant response rating
Summary of the method: as §2

[7] = test system: small-flower umbrella sedge (Cyperus difformis); assay: Test C flooded paddy test plant response; conditions: Cyperus difformis; Flood, 250 g ai/ha; scale of 0 to 100 where 0 is no effect and 100 is complete control; 13 to 15 days; read-out: Sedge, Umbrella plant response rating
Summary of the method: as §2

[8] = test system: galium (catchweed bedstraw, Galium aparine); assay: Test D pre-/postemergence plant response; conditions: Galium; for pest or weed control at 16 g/ha: 16 g ai/ha; for pest or weed control at 31 g/ha: 31 g ai/ha; for pest or weed control at 62 g/ha: 62 g ai/ha; for pest or weed control at 125 g/ha: 125 g ai/ha
Summary of the method: (§3)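 Visual injury scoring (0–100) at 13 to 15 days in greenhouse. Preemergence sprays on seeded loam/sand; postemergence sprays on 1–4 leaf plants.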

[9] = test system: johnsongrass (Sorghum halepense); assay: Test D pre-/postemergence plant response; conditions: Sorghum halepense; for pest or weed control at 16 g/ha: 16 g ai/ha; for pest or weed control at 31 g/ha: 31 g ai/ha; for pest or weed control at 62 g/ha: 62 g ai/ha; for pest or weed control at 125 g/ha: 125 g ai/ha
Summary of the method: as §3

[10] = test system: oilseed rape (Brassica napus); assay: Test D pre-/postemergence plant response; conditions: Brassica napus; for plant injury at 16 g/ha: 16 g ai/ha; for plant injury at 31 g/ha: 31 g ai/ha; for plant injury at 62 g/ha: 62 g ai/ha; for plant injury at 125 g/ha: 125 g ai/ha
Summary of the method: as §3

[11] = test system: ragweed (common ragweed, Ambrosia elatior); assay: Test D pre-/postemergence plant response; conditions: Ambrosia artemisiifolia; for pest or weed control at 16 g/ha: 16 g ai/ha; for pest or weed control at 31 g/ha: 31 g ai/ha; for pest or weed control at 62 g/ha: 62 g ai/ha; for pest or weed control at 125 g/ha: 125 g ai/ha
Summary of the method: as §3

[12] = test system: winter wheat (Triticum aestivum); assay: Test D pre-/postemergence plant response; conditions: Triticum aestivum; for plant injury at 16 g/ha: 16 g ai/ha; for plant injury at 31 g/ha: 31 g ai/ha; for plant injury at 62 g/ha: 62 g ai/ha; for plant injury at 125 g/ha: 125 g ai/ha
Summary of the method: as §3

[13] = test system: yellow nutsedge (Cyperus esculentus); assay: Test D pre-/postemergence plant response; conditions: Cyperus; for pest or weed control at 16 g/ha: 16 g ai/ha; for pest or weed control at 31 g/ha: 31 g ai/ha; for pest or weed control at 62 g/ha: 62 g ai/ha; for pest or weed control at 125 g/ha: 125 g ai/ha
Summary of the method: as §3

[14] = post-emergence, postemergence, 0 to 100 scale, 0 no effect, 100 complete control
[15] = post-emergence, Postemergence, 0 to 100 scale (0 no effect, 100 complete control)
[16] = pre-emergence, Preemergence, 0 to 100 scale where 0 is no effect and 100 is complete control
[17] = post-emergence, Postemergence, scale 0 to 100 (0 no effect, 100 complete control), read-out: Galium plant response rating
[18] = post-emergence, Postemergence, scale 0 to 100, 0 no effect, 100 complete control, read-out: Plant response rating, Galium
[19] = pre-emergence, Preemergence, scale 0 to 100 (0 no effect, 100 complete control), read-out: Plant response rating, Galium
[20] = post-emergence, Postemergence, scale 0 to 100 (0 no effect, 100 complete control), read-out: Johnsongrass plant response rating
[21] = post-emergence, Postemergence, scale 0 to 100, 0 no effect, 100 complete control, read-out: Plant response rating, Johnsongrass
[22] = pre-emergence, Preemergence, scale 0 to 100 (0 no effect, 100 complete control), read-out: Plant response rating, Johnsongrass
[23] = post-emergence, Postemergence, scale 0 to 100 (0 no effect, 100 complete control), read-out: Oilseed Rape plant response rating
[24] = post-emergence, Postemergence, scale 0 to 100, 0 no effect, 100 complete control, read-out: Plant response rating, Oilseed Rape
[25] = pre-emergence, Preemergence, scale 0 to 100 (0 no effect, 100 complete control), read-out: Plant response rating, Oilseed Rape
[26] = post-emergence, Postemergence, scale 0 to 100 (0 no effect, 100 complete control), read-out: Ragweed plant response rating
[27] = post-emergence, Postemergence, scale 0 to 100, 0 no effect, 100 complete control, read-out: Plant response rating, Ragweed
[28] = pre-emergence, Preemergence, scale 0 to 100 (0 no effect, 100 complete control), read-out: Plant response rating, Ragweed
[29] = post-emergence, Postemergence, scale 0 to 100 (0 no effect, 100 complete control), read-out: Wheat plant response rating
[30] = post-emergence, Postemergence, scale 0 to 100, 0 no effect, 100 complete control, read-out: Plant response rating, Wheat
[31] = pre-emergence, Preemergence, scale 0 to 100 (0 no effect, 100 complete control), read-out: Plant response rating, Wheat
[32] = post-emergence, Postemergence, scale 0 to 100 (0 no effect, 100 complete control), read-out: Nutsedge, Yellow plant response rating
[33] = post-emergence, Postemergence, scale 0 to 100, 0 no effect, 100 complete control, read-out: Plant response rating, Nutsedge, Yellow
[34] = pre-emergence, Preemergence, scale 0 to 100 (0 no effect, 100 complete control), read-out: Plant response rating, Nutsedge, Yellow

FC(F)(F)c1cc(-c2ccccc2Oc2ncc(Cl)cn2)on1 [Compound 63, 5-chloro-2-[2-[3-(trifluoromethyl)-5-isoxazolyl]phenoxy]pyrimidine]
pest or weed control at 125 g/ha [1, 14]: 80% | pest or weed control at 500 g/ha [1, 15]: 100% | pest or weed control at 125 g/ha [1, 16]: 90% | pest or weed control at 500 g/ha [1, 16]: 100% | Corn plant response rating (crop injury, 0 = no effect, 100 = complete kill) at 125 g/ha (corn (Zea mays); [14]): 20% | Corn plant response rating (crop injury, 0 = no effect, 100 = complete kill) at 500 g/ha (corn (Zea mays); [15]): 20% | Corn plant response rating (crop injury, 0 = no effect, 100 = complete kill) at 125 g/ha (corn (Zea mays); [16]): 10% | Corn plant response rating (crop injury, 0 = no effect, 100 = complete kill) at 500 g/ha (corn (Zea mays); [16]): 30% | pest or weed control at 125 g/ha [2, 14]: 70% | pest or weed control at 500 g/ha [2, 15]: 80% | pest or weed control at 125 g/ha [2, 16]: 100% | pest or weed control at 500 g/ha [2, 16]: 100% | pest or weed control at 125 g/ha [3, 14]: 100% | pest or weed control at 500 g/ha [3, 15]: 100% | pest or weed control at 125 g/ha [3, 16]: 100% | pest or weed control at 500 g/ha [3, 16]: 100% | plant injury at 125 g/ha [4, 14]: 0% | plant injury at 500 g/ha [4, 15]: 50% | plant injury at 125 g/ha [4, 16]: 20% | plant injury at 500 g/ha [4, 16]: 40% | pest or weed control at 250 g/ha [5]: 60% | pest or weed control at 250 g/ha [6]: 100% | plant injury at 250 g/ha (rice (Oryza sativa)): 25% | pest or weed control at 250 g/ha [7]: 85% | pest or weed control at 16 g/ha [8, 17]: 60% | pest or weed control at 31 g/ha [8, 17]: 70% | pest or weed control at 62 g/ha [8, 18]: 70% | pest or weed control at 125 g/ha [8, 18]: 70% | pest or weed control at 125 g/ha ([8]; pre-emergence, Preemergence, read-out: Plant response rating (scale 0 to 100), Galium): 98% | pest or weed control at 16 g/ha [8, 19]: 75% | pest or weed control at 31 g/ha [8, 19]: 98% | pest or weed control at 62 g/ha [8, 19]: 98% | pest or weed control at 16 g/ha [9, 20]: 5% | pest or weed control at 31 g/ha [9, 20]: 5% | pest or weed control at 62 g/ha [9, 21]: 25% | pest or weed control at 125 g/ha [9, 21]: 45% | pest or weed control at 125 g/ha ([9]; pre-emergence, Preemergence, read-out: Plant response rating (scale 0 to 100), Johnsongrass): 85% | pest or weed control at 16 g/ha [9, 22]: 5% | pest or weed control at 31 g/ha [9, 22]: 35% | pest or weed control at 62 g/ha [9, 22]: 70% | plant injury at 16 g/ha [10, 23]: 60% | plant injury at 31 g/ha [10, 23]: 90% | plant injury at 62 g/ha [10, 24]: 98% | plant injury at 125 g/ha [10, 24]: 100% | plant injury at 125 g/ha ([10]; pre-emergence, Preemergence, read-out: Plant response rating (scale 0 to 100), Oilseed Rape): 98% | plant injury at 16 g/ha [10, 25]: 70% | plant injury at 31 g/ha [10, 25]: 98% | plant injury at 62 g/ha [10, 25]: 98% | pest or weed control at 16 g/ha [11, 26]: 10% | pest or weed control at 31 g/ha [11, 26]: 40% | pest or weed control at 62 g/ha [11, 27]: 55% | pest or weed control at 125 g/ha [11, 27]: 55% | pest or weed control at 125 g/ha ([11]; pre-emergence, Preemergence, read-out: Plant response rating (scale 0 to 100), Ragweed): 70% | pest or weed control at 16 g/ha [11, 28]: 75% | pest or weed control at 31 g/ha [11, 28]: 20% | pest or weed control at 62 g/ha [11, 28]: 55% | plant injury at 16 g/ha [12, 29]: 0% | plant injury at 31 g/ha [12, 29]: 0% | plant injury at 62 g/ha [12, 30]: 5% | plant injury at 125 g/ha [12, 30]: 5% | plant injury at 125 g/ha ([12]; pre-emergence, Preemergence, read-out: Plant response rating (scale 0 to 100), Wheat): 45% | plant injury at 16 g/ha [12, 31]: 0% | plant injury at 31 g/ha [12, 31]: 0% | plant injury at 62 g/ha [12, 31]: 10% | pest or weed control at 16 g/ha [13, 32]: 0% | pest or weed control at 31 g/ha [13, 32]: 0% | pest or weed control at 62 g/ha [13, 33]: 5% | pest or weed control at 125 g/ha [13, 33]: 5% | pest or weed control at 125 g/ha ([13]; pre-emergence, Preemergence, read-out: Plant response rating (scale 0 to 100), Nutsedge, Yellow): 5% | pest or weed control at 16 g/ha [13, 34]: 0% | pest or weed control at 31 g/ha [13, 34]: 0% | pest or weed control at 62 g/ha [13, 34]: 0%
